Three compounds from patent US10400285B2, “DDX43 as a biomarker of resistance to MEK1/2 inhibitors” (Memorial Sloan-Kettering Cancer Center, priority 2013, dated 2019) can be followed below.

The subject of this assay is Res-Omm1.3 and Res-Mel270 cells. Put plainly: Cell viability assay (CCK8), MEKi-resistant cells. The class given is cell-based. As for the experimental part:
Cells were plated in 96-well plates, and treated with the indicated concentrations of drugs. […] Cell viability is expressed as a percentage of untreated cells.
To explore mechanisms of drug resistance, MEKi-resistant GNAQ-mutant cell lines were generated by exposing the cells to increasing concentrations of selumetinib for at least four weeks and routinely grown in 1 μM selumetinib, without clonal selection. After continuous exposure, the cell lines Res-Omm1.3 and Res-Mel270 became resistant to selumetinib compared to their parental cells Omm1.3 and Mel270 (FIG. 2A, B).

As to `NC1(c2ccc(-c3nc4ccn5c(=O)[nH]nc5c4cc3-c3ccccc3)cc2)CCC1` [MK2206], the “sensitivity to AKTi when combined with MEKi” value (MK2206 with selumetinib, FIG. 6) is listed as “sustained”. In addition, the “cell viability with AKTi compared to the parental lines” value (increasing concentrations of MK2206, FIG. 6) was “Decreased viability”.

As to `O=C(NOC[C@H](O)CO)c1ccc(F)c(F)c1Nc1ccc(I)cc1F` [PD0325901], for the setting “increasing doses, 4 days, FIG. 2A, B and FIG. 7”, the “cell viability: resistance to MEK inhibitor compared to parental cells” value was “cross resistance”.

Take `Cn1cnc2c(F)c(Nc3ccc(Br)cc3Cl)c(C(=O)NOCCO)cc21` [selumetinib]: for the setting “Res-Omm1.3 and Res-Mel270 vs parental Omm1.3 and Mel270, cell viability”, the “IC50 of resistant cells relative to their sensitive counterparts” value is recorded as 10 fold.
